According to US11028079B2 (ConverGene LLC, priority 2015, dated 2021):

Molecular target: T1, BRD4 bromodomains (Homo sapiens, UniProt O60885)
T1 construct: fused on or other part: T7 phage capsid protein (phage-display fusion; the phage DNA is read out by qPCR)
Experiment: BROMOscan bromodomain competition binding assay (DiscoveRx)
Details: Kd from 11 compound concentrations ranging from 0 to 10 μM, read-out: BROMOscan Relative Activity
Outline: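 Compounds in 0.1% DMSO/0.9% MEG competed with a solid-phase acetylated peptide for T7 phage-fused BRD4 bromodomains, with the retained bromodomain measured by qPCR.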

Kd [nM]	SMILES
< 500	Cc1noc(C)c1-c1ccc2ncnc(N3CCOCC3c3ccccc3)c2c1 (centres unmarked) [Example 264, 4-(6-(3,5-dimethylisoxazol-4-yl)quinazolin-4-yl)-3-phenylmorpholine]
< 500	Cc1noc(C)c1-c1ccc2nc(N3CCc4cnn(C)c4C3)nc(N3CCOC[C@@H]3c3ccccc3)c2c1 [Example 318, (S)-4-(6-(3,5-dimethylisoxazol-4-yl)-2-(1-methyl-1,4,5,7-tetrahydro-6H-pyrazolo[3,4-c]pyridin-6-yl)quinazolin-4-yl)-3-phenylmorpholine]
< 500	Cc1noc(C)c1-c1ccc2nc(N3CCC4(CCC(=O)N4C)CC3)nc(N3CCOC[C@@H]3c3ccccc3)c2c1 [Example 330, (S)-8-(6-(3,5-dimethylisoxazol-4-yl)-4-(3-phenylmorpholino)quinazolin-2-yl)-1-methyl-1,8-diazaspiro[4.5]decan-2-one]
< 500	Cc1noc(C)c1-c1ccc2nc(C(=O)N[C@H]3CC[C@H](O)CC3)nc(NCc3cccc(Cl)c3)c2c1 [Example 250, 4-((3-chlorobenzyl)amino)-6-(3,5-dimethylisoxazol-4-yl)-N-((trans)-4-hydroxycyclohexyl)quinazoline-2-carboxamide]
< 500	Cc1ncsc1CNC(=O)c1nc(NCc2cccc(Cl)c2)c2cc(-c3c(C)noc3C)ccc2n1 [Example 258, 4-((3-chlorobenzyl)amino)-6-(3,5-dimethylisoxazol-4-yl)-N-((4-methylthiazol-5-yl)methyl)quinazoline-2-carboxamide]
< 500	CNC(=O)CN1CCN(c2nc(N3CCOC[C@@H]3c3ccccc3)c3cc(-c4c(C)noc4C)ccc3n2)CC1 [Example 298]
< 500	Cc1n[nH]c(C)c1CNC(=O)c1nc(NCc2cccc(Cl)c2)c2cc(-c3c(C)noc3C)ccc2n1 [Example 257, 4-((3-chlorobenzyl)amino)-N-((3,5-dimethyl-1H-pyrazol-4-yl)methyl)-6-(3,5-dimethylisoxazol-4-yl)quinazoline-2-carboxamide]
< 500	Cc1noc(C)c1CNC(=O)c1nc(NCc2cccc(Cl)c2)c2cc(-c3c(C)noc3C)ccc2n1 [Example 259, 4-((3-chlorobenzyl)amino)-6-(3,5-dimethylisoxazol-4-yl)-N-((3,5-dimethylisoxazol-4-yl)methyl)quinazoline-2-carboxamide]
< 500	Cc1noc(C)c1-c1ccc2nc(-c3cnn(CC(C)(C)O)c3)nc(N(Cc3cccc(Cl)c3)C3CC3)c2c1 [Example 312, 1-(4-(4-((3-chlorobenzyl)(cyclopropyl)amino)-6-(3,5-dimethylisoxazol-4-yl)quinazolin-2-yl)-1H-pyrazol-1-yl)-2-methylpropan-2-ol]
500 to 5000	Cc1noc(C)c1-c1ccc2nc(-c3ccc(CO)s3)nc(N3CCOC[C@@H]3c3ccccc3)c2c1 [Example 323, (S)-(5-(6-(3,5-dimethylisoxazol-4-yl)-4-(3-phenylmorpholino)quinazolin-2-yl)thiophen-2-yl)methanol]

More lines, now with the values behind:

SMILES	Kd [nM]
Cc1noc(C)c1-c1ccc2nc(-c3cnn(CCC#N)c3)nc(NCc3cccc(Cl)c3)c2c1 [Example 57, 3-(4-(4-((3-chlorobenzyl)amino)-6-(3,5-dimethylisoxazol-4-yl)quinazolin-2-yl)-1H-pyrazol-1-yl)propanenitrile]	< 500
Cc1noc(C)c1-c1ccc2nc(C(=O)N(C)C3CCN(C)CC3)nc(NCc3cccc(Cl)c3)c2c1 [Example 211, 4-((3-chlorobenzyl)amino)-6-(3,5-dimethylisoxazol-4-yl)-N-methyl-N-(1-methylpiperidin-4-yl)quinazoline-2-carboxamide]	< 500
Cc1ccc(CNC(=O)c2nc(NCc3cccc(Cl)c3)c3cc(-c4c(C)noc4C)ccc3n2)cn1 [Example 197, 4-((3-chlorobenzyl)amino)-6-(3,5-dimethylisoxazol-4-yl)-N-((6-methylpyridin-3-yl)methyl)quinazoline-2-carboxamide]	< 500
Cc1noc(C)c1-c1ccc2c(NCc3cccc(Cl)c3)nc(N3CCN(CCO)CC3)nc2c1 [Example 40, 2-(4-(4-((3-chlorobenzyl)amino)-7-(3,5-dimethylisoxazol-4-yl)quinazolin-2-yl)piperazin-1-yl)ethanol]	500 to 5000
CC(=O)N1CCN(c2nc(NC3(c4cccc(Cl)c4)CC3)c3cc(-c4c(C)noc4C)ccc3n2)CC1 [Example 185, 1-(4-(4-((1-(3-chlorophenyl)cyclopropyl)amino)-6-(3,5-dimethylisoxazol-4-yl)quinazolin-2-yl)piperazin-1-yl)ethanone]	< 500
Cn1cc(-c2ccc3nc(-c4cnn(CC(N)=O)c4)nc(NCc4cccc(Cl)c4)c3c2)ccc1=O [Example 101, 2-(4-(4-((3-chlorobenzyl)amino)-6-(1-methyl-6-oxo-1,6-dihydropyridin-3-yl)quinazolin-2-yl)-1H-pyrazol-1-yl)acetamide]	< 500
Cc1noc(C)c1-c1ccc2nc(C(=O)NC3CN(C)C3)nc(NC3(c4cccc(Cl)c4)CC3)c2c1 [Example 242, 4-((1-(3-chlorophenyl)cyclopropyl)amino)-6-(3,5-dimethylisoxazol-4-yl)-N-(1-methylazetidin-3-yl)quinazoline-2-carboxamide]	< 500
Cn1cc(-c2ccc3nc(-c4cnn(CC(C)(C)O)c4)nc(NCc4cccc(Cl)c4)c3c2)ccc1=O [Example 103, 5-(4-((3-chlorobenzyl)amino)-2-(1-(2-hydroxy-2-methylpropyl)-1H-pyrazol-4-yl)quinazolin-6-yl)-1-methylpyridin-2(1H)-one]	< 500
Cc1noc(C)c1-c1ccc2nc(N3CCN(CCO)CC3)nc(NCc3cccc(Cl)c3)c2c1 [Example 20, 2-(4-(4-((3-chlorobenzyl)amino)-6-(3,5-dimethylisoxazol-4-yl)quinazolin-2-yl)piperazin-1-yl)ethanol]	< 500
Cc1cncc(CNc2nc(N3CCN(CCN(C)C)CC3)nc3ccc(-c4c(C)noc4C)cc23)c1 [Example 115, 2-(4-(2-(dimethylamino)ethyl)piperazin-1-yl)-6-(3,5-dimethylisoxazol-4-yl)-N-((5-methylpyridin-3-yl)methyl)quinazolin-4-amine]	< 500
Cc1noc(C)c1-c1ccc2nc(N3CCN(CCN(C)C)CC3)nc(N3CC(Cc4ccccc4)C3)c2c1 [Example 161, 2-(4-(4-(3-benzylazetidin-1-yl)-6-(3,5-dimethylisoxazol-4-yl)quinazolin-2-yl)piperazin-1-yl)-N,N-dimethylethanamine]	500 to 5000
CC(=O)N1CCC(NC(=O)c2nc(NCc3cccc(Cl)c3)c3cc(-c4c(C)noc4C)ccc3n2)CC1 [Example 199, N-(1-acetylpiperidin-4-yl)-4-((3-chlorobenzyl)amino)-6-(3,5-dimethylisoxazol-4-yl)quinazoline-2-carboxamide]	< 500
Cc1nn(C)c(C)c1CNC(=O)c1nc(NCc2cccc(Cl)c2)c2cc(-c3c(C)noc3C)ccc2n1 [Example 194, 4-((3-chlorobenzyl)amino)-6-(3,5-dimethylisoxazol-4-yl)-N-((1,3,5-trimethyl-1H-pyrazol-4-yl)methyl)quinazoline-2-carboxamide]	< 500
Cc1noc(C)c1-c1ccc2nc(-c3cnn(CCO)c3)nc(NC3(c4cccc(Cl)c4)CC3)c2c1 [Example 164, 2-(4-(4-((1-(3-chlorophenyl)cyclopropyl)amino)-6-(3,5-dimethylisoxazol-4-yl)quinazolin-2-yl)-1H-pyrazol-1-yl)ethanol]	< 500
Cc1noc(C)c1-c1ccc2nc(C(=O)NC3CCOCC3)cc(NCc3cccc(Cl)c3)c2c1 [Example 236, 4-((3-chlorobenzyl)amino)-6-(3,5-dimethylisoxazol-4-yl)-N-(tetrahydro-2H-pyran-4-yl)quinoline-2-carboxamide]	< 500
Cc1noc(C)c1-c1ccc2nc(C(=O)NCc3cncc(F)c3)nc(NCc3cccc(Cl)c3)c2c1 [Example 192, 4-((3-chlorobenzyl)amino)-6-(3,5-dimethylisoxazol-4-yl)-N-((5-fluoropyridin-3-yl)methyl)quinazoline-2-carboxamide]	< 500
Cc1noc(C)c1-c1ccc2nc(NCc3ncc[nH]3)nc(NCc3cccc(Cl)c3)c2c1 [Example 178, N2-((1H-imidazol-2-yl)methyl)-N4-(3-chlorobenzyl)-6-(3,5-dimethylisoxazol-4-yl)quinazoline-2,4-diamine]	< 500
Cc1noc(C)c1-c1ccc2nc(C(=O)NCc3cncn3C)nc(NCc3cccc(Cl)c3)c2c1 [Example 183, 4-((3-chlorobenzyl)amino)-6-(3,5-dimethylisoxazol-4-yl)-N-((1-methyl-1H-imidazol-5-yl)methyl)quinazoline-2-carboxamide]	< 500
Cc1noc(C)c1-c1ccc2nc(C(=O)Nc3ccncc3F)nc(NCc3cccc(Cl)c3)c2c1 [Example 223, 4-((3-chlorobenzyl)amino)-6-(3,5-dimethylisoxazol-4-yl)-N-(3-fluoropyridin-4-yl)quinazoline-2-carboxamide]	> 5000
Cn1cc(-c2ccc3nc(-c4cnn(CCO)c4)nc(NCc4cncc(Cl)c4)c3c2)ccc1=O [Example 143, 5-(4-(((5-chloropyridin-3-yl)methyl)amino)-2-(1-(2-hydroxyethyl)-1H-pyrazol-4-yl)quinazolin-6-yl)-1-methylpyridin-2(1H)-one]	< 500
Cc1noc(C)c1-c1ccc2nc(N3CCN(CCN(C)C)CC3)nc(NC3(c4cccc(Cl)c4)CC3)c2c1 [Example 170, N-(1-(3-chlorophenyl)cyclopropyl)-2-(4-(2-(dimethylamino)ethyl)piperazin-1-yl)-6-(3,5-dimethylisoxazol-4-yl)quinazolin-4-amine]	< 500
Cc1noc(C)c1-c1ccc2nc(N3CCN(C(=O)CN)CC3)nc(NCc3cncc(Cl)c3)c2c1 [Example 131, 2-amino-1-(4-(4-(((5-chloropyridin-3-yl)methyl)amino)-6-(3,5-dimethylisoxazol-4-yl)quinazolin-2-yl)piperazin-1-yl)ethanone]	< 500
